Data set [1] deals with human lung microvascular endothelial (HLMEC) cells. As to the kind of experiment: In vitro cytotoxicity against normal cells (SRB), HLMEC. It counts as cell-based. Conditions: for IC50: Homo sapiens, HLMEC normal cell line, 72 h exposure, SRB, mean ± SD, read-out: Antiproliferative activity IC50. From the text:
The following established in vitro cell lines were applied: human breast adenocarcinoma (MCF-7 and SK-BR-3), human breast ductal carcinoma (T47D), human prostate adenocarcinoma (PC-3), human prostate carcinoma (Du145), human colorectal adenocarcinoma (HT-29 and LoVo), doxorubicin-resistant human colorectal adenocarcinoma (LoVo/Dx), human myelomonocytic leukemia (MV-4-11), human lung adenocarcinoma (A549), normal murine embryonic fibroblasts (BALB/3T3) and human lung microvascular endothelial (HLMEC). All the cell lines were obtained from the American Type Culture Collection (Rockville, MD, USA) except for LoVo and LoVo/DX, which were received from the Technical University of Gdańsk, Poland, courtesy of Prof. E. Borowski. All the cell lines were maintained in the Institute of Immunology and Experimental Therapy, Wroclaw, Poland. The cells were cultured in the following media: DMEM medium (BALB/3T3), Eagle medium (MCF-7, SK-BR-3, Du145), RPMI medium (HLMEC, MV-4-11) or RPMI 1640 + Opti-MEM (1:1) medium (A549, T47D, LoVo, LoVo/Dx, PC-3, HT-29). The DMEM medium was supplemented with 2 mM L-glutamine and 10% fetal bovine serum. The Eagle medium was supplemented with 4 mM L-glutamine, 10% fetal bovine serum, 1 mM sodium pyruvate for Du145 cells or 2 mM L-glutamine, 1% amino acids and 0.8 mg L^−1 of insulin for MCF-7 and SK-BR-3. The RPMI medium was supplemented with 2 mM L-glutamine, 1 mM sodium pyruvate and 10% fetal bovine serum. The RPMI 1640 + Opti-MEM (1:1) medium was supplemented with 2 mM L-glutamine, 5% fetal bovine serum (PC-3, A549) and 0.8 mg L^−1 insulin (T47D) or 1 mM sodium pyruvate (HT-29, LoVo, LoVoDx) and 0.1 ug/mL doxorubicin (LoVo/Dx). The media contained antibiotics: 100 µg mL^−1 streptomycin and 100 U mL^−1 penicillin. All the cell lines were incubated at 37 °C in a humid atmosphere saturated with 5% CO2.
The details of this technique were described by Skehan et al.. […] The unbound dye was removed by washing the plates five times with 1% acetic acid, whereas the stain bound to the cells was extracted with 150 µL of 10 mM unbuffered Tris base for determination of the optical density at a 540 nm wavelength in a computer-interfaced, 96-well microtiter plate reader–Multiskan FC photometer (Thermo Scientific, Waltham, MA, USA). The background optical density was measured in the wells filled with culture medium, without the cells.
Twenty-four hours before incubation with the tested compounds, the cells were seeded in 96-well plates (Sarstedt, Nümbrecht, Germany) at a density of 10^4 cells per well (10^3 cells per well for HLMEC) in 100 µL of culture medium. […] The results were calculated as the IC50 (μM) (half maximal inhibitory concentration), i.e., the concentration of the tested agent that inhibits the proliferation of the cancer cell population by half. […]

The subject of data set [2] is breast cancer cell lines MCF-7, SK-BR-3, T47D. Briefly: Selectivity towards all breast cancer cell lines tested (SRB). As to conditions: IC50 BALB/3T3/IC50 of MCF-7, SK-BR-3, T47D. It counts as cell-based, human. The procedure: The selective effect of a drug can be expressed by the selectivity index (SI), which is determined by comparing the cytotoxic activity of each compound against each cancer cell line with the activity against a normal cell line. The SI was calculated as the IC50 ratio for a normal cell line (SIA—HLMEC; SIB—BALB/3T3) to the IC50 value for the corresponding tumor cell line using the following equation:(1) SI=IC50 for normal cell line/IC50 for cancerous cell line […]
The details of this technique were described by Skehan et al.. […] The unbound dye was removed by washing the plates five times with 1% acetic acid, whereas the stain bound to the cells was extracted with 150 µL of 10 mM unbuffered Tris base for determination of the optical density at a 540 nm wavelength in a computer-interfaced, 96-well microtiter plate reader–Multiskan FC photometer (Thermo Scientific, Waltham, MA, USA). The background optical density was measured in the wells filled with culture medium, without the cells. […]

Structures are written as SMILES.

`COc1cc(O)c(CC=C(C)C)c(O)c1C(=O)/C=C/c1ccc(O)cc1` [compound 1, 3′-[3″,3″-dimethylallyl]-2′,4′,4-trihydroxy-6′-methoxychalcone]: the 50% inhibitory concentration (IC50) in data set [1] turned out to be 36.3 ± 6.7 µM.
As for `COc1cc(O)c(CC=C(C)C)c2c1C(=O)/C(=C/c1ccc(O)cc1)O2` [compound 2, (Z)-6,4′-dihydroxy-4-methoxy-7-prenylaurone], the “reduction of cytotoxic effect against normal cells relative to xanthohumol (1)” value in data set [1] (HLMEC, p < 0.05) was 1.5 fold. The IC50 in data set [1] turned out to be 52.8 ± 8.03 µM. Moreover, in data set [2], the “selectivity index SIB, range over breast cancer cell lines” value is listed as 3.93–5.50.

A word on the IC50: it is the concentration that inhibits the measured activity by half.

The record behind these values is article PMC10138577, “Prenylated Flavonoids with Selective Toxicity against Human Cancers” (International Journal of Molecular Sciences, 2023).
